Reference: US20250304576A1 (Cancer Research Technology Limited, priority 2022, published 2025)

What was measured:
Recombinant IKKβ = target: T1, Recombinant IKKβ (Homo sapiens, UniProt O14920); test: DELFIA IKKβ kinase assay (apparent Ki, Cheng-Prusoff); assay type: biochemical
T1 construct: purchased Millipore, Dundee, UK
T1 sequence (O14920 1-756): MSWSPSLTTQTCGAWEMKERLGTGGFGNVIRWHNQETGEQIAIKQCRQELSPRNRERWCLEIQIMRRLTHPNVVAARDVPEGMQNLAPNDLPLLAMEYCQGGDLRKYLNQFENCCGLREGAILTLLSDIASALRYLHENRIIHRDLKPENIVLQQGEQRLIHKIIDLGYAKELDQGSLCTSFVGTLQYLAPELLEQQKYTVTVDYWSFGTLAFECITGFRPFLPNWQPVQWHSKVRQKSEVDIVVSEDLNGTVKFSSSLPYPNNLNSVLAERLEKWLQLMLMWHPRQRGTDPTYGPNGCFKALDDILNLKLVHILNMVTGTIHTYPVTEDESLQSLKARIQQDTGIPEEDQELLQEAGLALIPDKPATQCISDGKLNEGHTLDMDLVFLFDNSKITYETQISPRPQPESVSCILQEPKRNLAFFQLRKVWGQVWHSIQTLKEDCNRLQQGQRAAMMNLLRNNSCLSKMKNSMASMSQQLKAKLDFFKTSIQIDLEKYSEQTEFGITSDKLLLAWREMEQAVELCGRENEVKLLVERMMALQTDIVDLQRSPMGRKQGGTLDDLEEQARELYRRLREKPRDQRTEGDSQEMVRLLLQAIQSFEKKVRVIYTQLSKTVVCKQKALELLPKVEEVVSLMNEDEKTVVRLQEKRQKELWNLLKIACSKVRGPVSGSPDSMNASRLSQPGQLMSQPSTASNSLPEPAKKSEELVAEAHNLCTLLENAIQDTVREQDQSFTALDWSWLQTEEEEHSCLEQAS
Description: (§1) IKKα and IKKβ inhibitory activity was determined using three different assays: a dissociation enhanced ligand fluorescent immunoassay (DELFIA) based on the protocol of HTScan™ IKKβ Kinase Assay (Cell Signaling Technology, USA); an Adapta IKKα assay (performed by Life Technologies); a Z′-LYTE™ IKKβ assay (performed by Life Technologies).
(§2) Recombinant IKKα or IKKβ, 37 nM, (Millipore, Dundee, UK) was incubated with IηB-α (Ser32) (New England Biolabs, Hitchin, UK) biotinylated peptide substrate (0.375 μM) and 40 μM ATP in assay buffer (40 mM Tris-HCl (pH 7.5), 20 mM MgCl2, EDTA 1 mM, DTT 2 mM and BSA 0.01 mg/ml) in a V-well 96-well plate in the presence and absence of test compound. The assay plate was incubated for 60 minutes at 30° C. after which the kinase reaction was quenched by the addition of 50 mM EDTA, pH8. The resulting mixture was transferred to a streptavidin coated 96-well plate (Perkin Elmer, Beaconsfield, UK) and incubated for 1 hour at 30° C. to immobilise the substrate peptide. After three washes with wash buffer (0.01 M phosphate buffered saline (PBS), 0.05% Tween −20, pH 7.4) a primary antibody against the phosphorylated substrate (phospho-IηB-a) (Ser32/36) (5A5) Mouse mAb (New England Biolabs, Hitchin, UK) (1:1000 dilution with 1% bovine serum albumin (BSA) in wash buffer) was added and incubated at 37° C. for 2 h.
(§3) After a further three washes, a secondary europiated antibody (Eu-N1 labelled anti-mouse IgG, (Perkin Elmer, Beaconsfield, UK) diluted 1:500 in 1% BSA/wash buffer) was added and incubated at 30° C. for 30 minutes. After a further five washes, DELFIA enhancement solution—(Perkin Elmer, Beaconsfield UK) was added and allowed to incubate for 10 min at room temperature, protected from light, to facilitate the chemifluorescent detection. The relative fluorescence units (RFU) signal were measured on a Wallac Victor 1420 multilabel counter (Perkin Elmer, Beaconsfield, UK), in time-resolved fluorescence mode. The counter was set at an excitation wavelength of 340 nm with a 400 μs delay before detecting emitted light at 615 nm. The apparent Ki of the […] was calculated for each compound using the Cheng-Prusoff Equation.
(§4) The IKKα and IKKβ figures quoted in non-italicised form are from the DELFIA assay described above.

Recombinant IKKα = target: T2, Recombinant IKKα (Homo sapiens, UniProt O15111); test: DELFIA IKKα kinase assay (apparent Ki, Cheng-Prusoff); assay type: biochemical
T2 construct: purchased Millipore, Dundee, UK
T2 sequence (O15111 1-745): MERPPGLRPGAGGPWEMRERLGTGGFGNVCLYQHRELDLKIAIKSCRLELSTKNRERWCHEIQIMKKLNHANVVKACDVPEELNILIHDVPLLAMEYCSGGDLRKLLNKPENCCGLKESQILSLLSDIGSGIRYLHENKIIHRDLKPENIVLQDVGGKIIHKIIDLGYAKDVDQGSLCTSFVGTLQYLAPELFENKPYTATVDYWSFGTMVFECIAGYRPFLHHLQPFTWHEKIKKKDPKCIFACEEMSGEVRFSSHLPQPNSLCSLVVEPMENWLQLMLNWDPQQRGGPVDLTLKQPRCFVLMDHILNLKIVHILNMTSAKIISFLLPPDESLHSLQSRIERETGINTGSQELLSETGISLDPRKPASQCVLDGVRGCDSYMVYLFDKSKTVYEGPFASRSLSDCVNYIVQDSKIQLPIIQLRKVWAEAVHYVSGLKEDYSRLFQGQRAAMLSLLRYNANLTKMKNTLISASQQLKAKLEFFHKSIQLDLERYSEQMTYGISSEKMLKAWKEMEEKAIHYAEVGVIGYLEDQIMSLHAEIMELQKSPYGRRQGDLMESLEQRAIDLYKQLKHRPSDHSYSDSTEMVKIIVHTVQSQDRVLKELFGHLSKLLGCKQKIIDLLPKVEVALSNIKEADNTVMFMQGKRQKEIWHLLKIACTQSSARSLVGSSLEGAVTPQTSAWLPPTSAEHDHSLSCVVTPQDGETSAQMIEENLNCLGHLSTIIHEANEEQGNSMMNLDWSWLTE
Description: as §1, §2, §3, §4

[1] = DELFIA assay (first line of an example)
[2] = non-italicised figure: DELFIA assay

| Compound | Ki (Recombinant IKKβ; [1]) | Ki (Recombinant IKKα; [1]) | Ki (Recombinant IKKβ; [2]) | Ki (Recombinant IKKα; [2]) |
| --- | --- | --- | --- | --- |
| Nc1n[nH]c2c(C#CCCOc3ccccc3)cc(-c3ccnc4[nH]ccc34)cc12 [Example 216, 7-(4-Phenoxybut-1-yn-1-yl)-5-(1H-pyrrolo[2,3-b]pyridin-4-yl)-1H-indazol-3-amine] | 81 nM | 16 nM | – | – |
| CC(C)(C)C#Cc1cc(-c2ccnc(Nc3ncccn3)c2)cc2c(N)n[nH]c12 [Example 321, 7-(3,3-Dimethylbut-1-yn-1-yl)-5-(2-(pyrimidin-2-ylamino)pyridin-4-yl)-1H-indazol-3-amine] | 4580 nM | 202 nM | – | – |
| CC(C)(C)C#Cc1cc(-c2ccnc3[nH]c(C(C)(C)O)cc23)cc2c(N)n[nH]c12 [Example 298, 2-(4-(3-Amino-7-(3,3-dimethylbut-1-yn-1-yl)-1H-indazol-5-yl)-1H-pyrrolo[2,3-b]pyridin-2-yl)propan-2-ol] | 540 nM | 16 nM | – | – |
| CC(C)(C)C#Cc1cc(-c2ccnc3[nH]c(C(C)(C)C)cc23)cc2c(N)n[nH]c12 [Example 296, 5-(2-(tert-Butyl)-1H-pyrrolo[2,3-b]pyridin-4-yl)-7-(3,3-dimethylbut-1-yn-1-yl)-1H-indazol-3-amine] | 1080 nM | 449 nM | – | – |
| Nc1cccc(C#Cc2c(-c3ccc4[nH]nc(N)c4c3)ccnc2N)c1 [Example 77, 5-(2-Amino-3-((3-aminophenyl)ethynyl)pyridine-4-yl)-1H-indazol-3-amine] | – | – | 22 nM | 4 nM |
| Nc1n[nH]c2ccc(-c3ccnc(NC(=O)Nc4cccc(OCc5cccc(F)c5)c4)c3)cc12 [Example 59, 1-(4-(3-Amino-1H-indazol-5-yl)pyridin-2-yl)-3-(3-((3-fIuorobenzyl)oxy)phenyl)urea] | – | – | 1780 nM | 93 nM |
| COC(=O)Nc1cc(-c2cc(C#CC(C)(C)N)c3[nH]nc(N)c3c2)ccn1 [Example 181, Methyl (4-(3-amino-7-(3-amino-3-methylbut-1-yn-1-yl)-1H-indazol-5-yl)pyridin-2-yl)carbamate1] | – | – | 515 nM | 20 nM |
| Nc1n[nH]c2c(C#CC3(O)CCCC3)cc(-c3ccnc4[nH]ccc34)cc12 [Example 207, 1-((3-Amino-5-(1H-pyrrolo[2,3-b]pyridin-4-yl)-1H-indazol-7-yl)ethynyl)cyclopentan-1-ol] | 1470 nM | 82 nM | – | – |
| Nc1n[nH]c2c(Br)cc(-c3ccnc4[nH]ccc34)cc12 [Example 5, 7-Bromo-5-(1H-pyrrolo[2,3-b]pyridin-4-yl)-1H-indazol-3-amine] | – | – | 26 nM | 6 nM |
| COC(=O)Nc1cc(-c2cc(-c3ccc(NC(C)=O)cc3)c3[nH]nc(N)c3c2)ccn1 [Example 326, Methyl (4-(7-(4-acetamidophenyl)-3-amino-1H-indazol-5-yl)pyridin-2-yl)carbamate] | 87 nM | 14 nM | – | – |
| Nc1cc(-c2cc(-c3cccc(C(F)(F)F)c3)c3[nH]nc(N)c3c2)ccn1 [Example 106, 5-(2-Aminopyridin-4-yl)-7-(3-(trifluoromethyl)phenyl)-1H-indazol-3-amine] | – | – | 1010 nM | 162 nM |
| Nc1ccc(C#Cc2c(-c3ccc4[nH]nc(N)c4c3)ccnc2N)cc1 [Example 76, 5-(2-Amino-3-((4-aminophenyl)ethynyl)pyridine-4-yl)-1H-indazol-3-amine] | – | – | 32 nM | 8 nM |
| Nc1n[nH]c2ccc(-c3ccnc4[nH]c(C(=O)NCCCc5ccccc5)cc34)cc12 [Example 239, 4-(3-Amino-1H-indazol-5-yl)-N-(3-phenylpropyl)-1H-pyrrolo[2,3-b]pyridine-2-carboxamide] | 60 nM | 5 nM | – | – |
| Nc1n[nH]c2c(-c3ccoc3)cc(-c3ccnc4[nH]ccc34)cc12 [Example 199, 7-(Furan-3-yl)-5-(1H-pyrrolo[2,3-b]pyridin-4-yl)-1H-indazol-3-amine] | 45 nM | 6 nM | – | – |
| Nc1nccc(-c2ccc3[nH]nc(N)c3c2)c1C#CCCC(=O)c1ccccc1 [Example 82, 5-(2-Amino-4-(3-amino-1H-indazol-5-yl)pyridine-3-yl)-1-phenylpent-4-yn-1-one] | – | – | 537 nM | 19 nM |

Second part, the compound after the results:

| Ki (Recombinant IKKβ; [1]) | Ki (Recombinant IKKα; [1]) | Ki (Recombinant IKKβ; [2]) | Ki (Recombinant IKKα; [2]) | Compound |
| --- | --- | --- | --- | --- |
| 389 nM | 18 nM | – | – | COCCNCc1cc2c(-c3ccc4[nH]nc(N)c4c3)ccnc2[nH]1 [Example 254, 5-(2-(((2-Methoxyethyl)amino)methyl)-1H-pyrrolo[2,3-b]343yridine-4-yl)-1H-indazol-3-amine] |
| – | – | 838 nM | 20 nM | CCNC(=O)Nc1cc(-c2ccc3[nH]nc(N)c3c2)ccn1 [Example 36, 1-(4-(3-Amino-1H-indazol-5-yl)pyridine-2-yl)-3-ethylurea] |
| – | – | 350 nM | 26 nM | Nc1n[nH]c2ccc(-c3ccnc(NC(=O)c4ccccc4)c3)cc12 [Example 34, N-(4-(3-Amino-1H-indazol-5-yl)pyridin-2-yl)benzamide] |
| – | – | > 10000 nM | 495 nM | Nc1n[nH]c2ccc(-c3ccnc(NCCN4CCCCC4)c3)cc12 [Example 31, 5-(2-((2-(Piperidin-1-yl)ethyl)amino)pyridine-4-yl)-1H-indazol-3-amine] |
| – | – | > 30000 nM | > 3000 nM | COCCCNc1cc(-c2cc(C#CC(C)(C)C)c3[nH]nc(N)c3c2)ccn1 [Example 163, 7-(3,3-Dimethylbut-1-yn-1-yl)-5-(2-((3-methoxypropyl)amino)pyridine-4-yl)-1H-indazol-3-amine] |
| – | – | 1970 nM | 80 nM | Nc1n[nH]c2ccc(-c3ccnc(NC(=O)Nc4cccc(OCc5ccc(F)cc5)c4)c3)cc12 [Example 58, 1-(4-(3-Amino-1H-indazol-5-yl)pyridin2-yl)-3-(3-((4-fluorobenzyl)oxy)phenyl)urea] |
| – | – | 1840 nM | 304 nM | Nc1n[nH]c2ccc(-c3ccnc(NC(=O)NCc4ccncc4)c3)cc12 [Example 49, 1-(4-(3-Amino-1H-indazol-5-yl)pyridin-2-yl)-3-(pyridin-4-ylmethyl)urea] |
| – | – | 2800 nM | 141 nM | CC(C)(C)C#Cc1cc(-c2ccnc(NCC3CC3)c2)cc2c(N)n[nH]c12 [Example 157, 5-(2-((Cyclopropylmethyl)amino)pyridin-4-yl)-7-(3,3-dimethylbut-1-yn-1-yl)-1H-indazol-3-amine] |
